Where only a bound is given, the exact number is not on record here.

One experiment deals with T1, human Y1 receptor (Homo sapiens, UniProt P25929).
T1 construct: host or cells: 293 cells, line 293-hY1-5
T1 sequence (P25929 1-384): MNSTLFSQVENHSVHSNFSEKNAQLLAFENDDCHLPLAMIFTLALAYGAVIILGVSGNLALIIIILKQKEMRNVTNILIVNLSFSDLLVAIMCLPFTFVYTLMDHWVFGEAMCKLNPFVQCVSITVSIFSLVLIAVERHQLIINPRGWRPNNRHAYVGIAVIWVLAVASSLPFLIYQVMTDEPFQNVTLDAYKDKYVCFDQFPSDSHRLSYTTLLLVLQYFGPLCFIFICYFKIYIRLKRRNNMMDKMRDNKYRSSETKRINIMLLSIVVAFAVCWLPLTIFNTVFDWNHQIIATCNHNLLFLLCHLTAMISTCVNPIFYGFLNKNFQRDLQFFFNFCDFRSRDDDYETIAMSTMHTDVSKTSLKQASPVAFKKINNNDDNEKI
The experiment can be described thus: Binding at human neuropeptide Y Y1 receptor. The note with it: Table 8; read-out: hY1 Ki. From the text:
(§1) Neuropeptide receptors: Stably transfected cell lines which may be used for binding experiments include, for the Y1 receptor, 293-hY1-5 (deposited Jun. 4, 1996, under ATCC Accession No. CRL-12121); for the Y2 receptor, 293-hY2-10 (deposited Jan. 27, 1994, under ATCC Accession No. CRL-11837); for the Y4 receptor, L-hY4-3 (deposited Jan. 11, 1995, under ATCC Accession No. CRL 11779); and for the Y5 receptor, L-hY5-7 (deposited Nov. 15, 1995, under ATCC Accession No. CRL 11995).
(§2) Binding assays using the NPY receptors may be carried out according to the procedures described in U.S. Pat. No. 5,602,024, the disclosure of which is hereby incorporated by reference in its entirety into this application.
(§3) The binding affinity (Ki) of these compounds were tested according to the protocols described herein at the following receptors; human α1A, α1B, α1D, α2A, α2B, and α2C adrenergic receptors; human Y1, Y2, Y4, and Y5 receptors; and N-Methyl-D-aspartic acid (NMDA) receptor channels. The binding interactions of these compounds were additionally tested at the norepinephrine (NE) transporter (NE uptake) and serotonin (5-hydroxytryptamine (5HT)) transporter (5HT uptake) according to protocols described herein

In another experiment the target is T2, human Y4 receptor (Homo sapiens, UniProt P50391).
T2 construct: host or cells: L cells, line L-hY4-3
T2 sequence (P50391 whole entry): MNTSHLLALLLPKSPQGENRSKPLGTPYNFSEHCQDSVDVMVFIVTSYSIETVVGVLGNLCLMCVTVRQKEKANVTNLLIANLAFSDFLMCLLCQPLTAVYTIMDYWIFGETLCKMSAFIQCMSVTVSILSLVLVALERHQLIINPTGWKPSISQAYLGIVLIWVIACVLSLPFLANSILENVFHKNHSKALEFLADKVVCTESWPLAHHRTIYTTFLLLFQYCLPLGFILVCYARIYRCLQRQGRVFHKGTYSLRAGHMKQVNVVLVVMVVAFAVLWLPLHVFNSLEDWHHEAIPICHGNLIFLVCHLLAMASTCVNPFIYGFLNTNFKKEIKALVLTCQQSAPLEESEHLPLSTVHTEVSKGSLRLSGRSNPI
Briefly: Binding at human neuropeptide Y Y4 receptor. The note with it: Table 8; read-out: hY4 Ki.
Source text: as §1, §2, §3

In the next experiment the target is T3, human Y2 receptor (Homo sapiens, UniProt P49146).
T3 construct: host or cells: 293 cells, line 293-hY2-10
T3 sequence (P49146 1-381): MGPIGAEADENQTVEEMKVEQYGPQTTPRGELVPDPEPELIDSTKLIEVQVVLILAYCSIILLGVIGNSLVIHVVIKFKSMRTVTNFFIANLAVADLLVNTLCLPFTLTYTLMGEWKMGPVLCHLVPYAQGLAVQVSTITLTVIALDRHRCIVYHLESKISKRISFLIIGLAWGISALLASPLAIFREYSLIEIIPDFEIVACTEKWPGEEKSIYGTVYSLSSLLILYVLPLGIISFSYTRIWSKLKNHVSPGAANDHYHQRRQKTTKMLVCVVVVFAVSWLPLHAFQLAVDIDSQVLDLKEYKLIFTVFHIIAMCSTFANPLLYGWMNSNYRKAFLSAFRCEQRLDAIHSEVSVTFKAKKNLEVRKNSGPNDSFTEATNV
Briefly: Binding at human neuropeptide Y Y2 receptor. The note with it: Table 8; read-out: hY2 Ki.
Source text: as §1, §2, §3

The next experiment addresses T4, rat NPFF2 receptor (Rattus norvegicus, UniProt Q9EQD2).
T4 construct: The full-length NPFF2 was amplified from rat spinal cord cDNA; expressed in transfected cells; host or cells: not given
The experiment can be described thus: Functional assay (agonist potency, intrinsic activity) at cloned rat NPFF2 receptor. The note with it: Table 7, intrinsic activity. The class given is cell-based.

A further experiment concerns the target T5, human Y5 receptor (Homo sapiens, UniProt Q15761).
T5 construct: host or cells: L cells, line L-hY5-7
T5 sequence (Q15761 1-445): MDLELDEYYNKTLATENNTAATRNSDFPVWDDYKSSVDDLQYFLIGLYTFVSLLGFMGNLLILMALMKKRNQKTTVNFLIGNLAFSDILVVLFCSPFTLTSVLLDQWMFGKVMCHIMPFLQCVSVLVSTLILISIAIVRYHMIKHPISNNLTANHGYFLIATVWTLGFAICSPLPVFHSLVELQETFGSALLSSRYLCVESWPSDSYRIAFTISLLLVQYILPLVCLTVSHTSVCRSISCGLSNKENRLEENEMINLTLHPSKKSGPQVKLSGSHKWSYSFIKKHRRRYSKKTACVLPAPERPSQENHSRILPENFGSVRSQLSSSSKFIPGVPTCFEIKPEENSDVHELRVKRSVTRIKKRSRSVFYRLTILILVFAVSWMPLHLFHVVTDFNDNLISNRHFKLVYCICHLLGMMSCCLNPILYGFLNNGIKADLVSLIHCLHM
Briefly: Binding at human neuropeptide Y Y5 receptor. The settings on record: Table 8; read-out: hY5 Ki.
Source text: as §1, §2, §3

Experiment [1] has as its target T6, serotonin (5HT) transporter (Rattus norvegicus, UniProt P31652).
T6 construct: evaluated at native, tissue-derived transporters; from tissue
The experiment can be described thus: Binding at native serotonin transporter (5HT uptake). The note with it: Table 8. As to the method: (§4) Transporters: The binding properties of compounds were evaluated at native, tissue-derived transporters, namely serotonin (5HT) transporter and norepinephrine (NE) transporter, according to protocols described in Owens (1997), the disclosure of which is hereby incorporated by reference in its entirety into this application.
as §3

The target of experiment [2] is T7, norepinephrine (NE) transporter (Rattus norvegicus, UniProt Q63380).
T7 construct: evaluated at native, tissue-derived transporters; from tissue
T7 sequence (Q63380 1-617): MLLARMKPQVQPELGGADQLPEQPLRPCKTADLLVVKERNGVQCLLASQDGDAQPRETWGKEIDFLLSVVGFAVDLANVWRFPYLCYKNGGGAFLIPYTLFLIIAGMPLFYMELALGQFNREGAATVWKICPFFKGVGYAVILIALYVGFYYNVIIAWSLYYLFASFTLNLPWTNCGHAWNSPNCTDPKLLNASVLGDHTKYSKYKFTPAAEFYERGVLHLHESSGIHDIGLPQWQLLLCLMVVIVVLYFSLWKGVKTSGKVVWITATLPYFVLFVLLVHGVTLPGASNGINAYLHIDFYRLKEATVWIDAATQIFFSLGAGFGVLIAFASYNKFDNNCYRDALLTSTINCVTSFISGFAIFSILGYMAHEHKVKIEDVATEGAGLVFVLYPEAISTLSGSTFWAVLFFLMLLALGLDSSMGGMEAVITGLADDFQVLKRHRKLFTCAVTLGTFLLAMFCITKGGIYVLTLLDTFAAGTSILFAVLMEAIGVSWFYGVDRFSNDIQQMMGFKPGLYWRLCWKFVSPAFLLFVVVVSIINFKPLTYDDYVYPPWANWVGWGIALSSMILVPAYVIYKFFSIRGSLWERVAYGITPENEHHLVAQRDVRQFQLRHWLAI
Briefly: Binding at native norepinephrine transporter (NE uptake). The settings on record: Table 8. As to the method:
as §4, §3

T4 sequence (Q9EQD2 whole entry): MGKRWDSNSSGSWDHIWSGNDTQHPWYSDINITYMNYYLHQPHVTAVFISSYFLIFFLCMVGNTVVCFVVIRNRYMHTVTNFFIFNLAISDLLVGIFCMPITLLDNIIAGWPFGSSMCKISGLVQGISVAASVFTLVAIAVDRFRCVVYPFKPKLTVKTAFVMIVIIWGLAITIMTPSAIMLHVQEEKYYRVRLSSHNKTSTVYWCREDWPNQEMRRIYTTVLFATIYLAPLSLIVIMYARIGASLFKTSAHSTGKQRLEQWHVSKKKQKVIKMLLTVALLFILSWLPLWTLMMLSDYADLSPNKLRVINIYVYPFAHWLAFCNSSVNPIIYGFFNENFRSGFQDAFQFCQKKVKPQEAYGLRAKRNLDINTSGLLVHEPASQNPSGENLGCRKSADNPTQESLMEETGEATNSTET
T6 sequence (P31652 whole entry): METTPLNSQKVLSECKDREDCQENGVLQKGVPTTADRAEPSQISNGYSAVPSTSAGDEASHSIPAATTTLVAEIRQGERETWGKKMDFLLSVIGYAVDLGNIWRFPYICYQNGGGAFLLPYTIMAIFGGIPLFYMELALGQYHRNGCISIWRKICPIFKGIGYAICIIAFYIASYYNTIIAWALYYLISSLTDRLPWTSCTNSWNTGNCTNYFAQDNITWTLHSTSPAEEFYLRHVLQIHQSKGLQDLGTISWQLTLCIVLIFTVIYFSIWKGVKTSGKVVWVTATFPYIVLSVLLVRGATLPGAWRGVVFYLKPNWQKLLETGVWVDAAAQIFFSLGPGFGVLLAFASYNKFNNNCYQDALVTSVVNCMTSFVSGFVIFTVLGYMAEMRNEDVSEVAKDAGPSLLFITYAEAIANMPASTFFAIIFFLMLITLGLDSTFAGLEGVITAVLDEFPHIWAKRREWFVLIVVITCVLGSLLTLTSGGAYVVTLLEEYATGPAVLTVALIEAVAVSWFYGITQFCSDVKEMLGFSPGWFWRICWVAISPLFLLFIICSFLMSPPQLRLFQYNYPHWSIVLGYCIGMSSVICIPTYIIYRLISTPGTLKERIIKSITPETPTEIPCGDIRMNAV

In general, Ki refers to a measure of affinity in units of concentration, obtained from inhibition or displacement. Take `Cc1nc(NC(=N)N)nc2ccc3ccccc3c12` [Compound 1007A]: the Ki on human Y1 receptor is 5240 nM; on human Y4 receptor it was 2610 nM; at human Y2 receptor it was over 50000 nM; at human Y5 receptor, 74 nM; in experiment [1] it was 26 nM; in experiment [2] it was 1940 nM. The “rNPFF2 IA” value on rat NPFF2 receptor is listed as 66% NPFF.

In the case of `Cc1cc(NC(=N)N)nc2ccc(Cl)cc12` [Compound 4005A, N-(6-chloro-4-methyl-2-quinolinyl)guanidine], the Ki was 12300 nM on human Y1 receptor; 5050 nM at human Y4 receptor; over 50000 nM at human Y2 receptor; 358 nM at human Y5 receptor; 2580 nM in experiment [1]; 8290 nM in experiment [2]. Besides, on rat NPFF2 receptor, the “rNPFF2 IA” value is 61% NPFF.

For the origin of these results see patent publication US20030176314A1, “Compounds for the treatment of pain” (priority 2001, published 2003).
